The target in the experiment is LSD1 (Homo sapiens, UniProt O60341). Briefly: biochemical. The settings on record: read-out: inhibits LSD1 activity.

Molecules are shown by their SMILES.

Protocol: MassSQUIRM Lysine residues were chemically dimethylated using a reductive methylation technique adapted from Rayment, et al (21). […] This reaction was incubated for 2 hours at 4° C. Fresh aliquots of borane dimethylamine and formaldehyde were added and the reaction was again incubated at 4° C. for two hours. A final aliquot of borane dimethylamine was added and the reaction was incubated at 4° C. for ˜16 hours. The reaction was quenched with 80 mM Tris-Cl, pH 7.5. Peptides were incubated with POROS R220 micron beads (Applied Biosystems), collected with a C18 ZipTip™ (Millipore) and spotted for MALDI analysis in 2,5-dihydroxybenzoic acid. Mass spectra of peptides were collected with a MALDI-prOTOF mass spectrometer (PerkinElmerSciex) (61, 62). Spectra were viewed and peak areas extracted using MoverZ™ software (Genomic Solutions). Reaction products were verified by MS^2 with a Thermo LTQ XL mass spectrometer coupled to a NanoLC-2D™ liquid chromatography system (Eksigent).
Demethylase Assay. […] The reaction proceeded for 2 hr at 37° C. Reaction products were collected with POROS R2 20 micron beads for 15 minutes at room temperature, loaded into a C18 ZipTip, eluted in 40 μL 70% acetonitrile/0.1% TFA, lyophilized, and subjected to MassSQUIRM as described above.
LSD1 Inhibition Assay. […]

For the compound `NNCCc1ccccc1` [phenylethylhydrazine], the inhibition at 16700 µM amounted to 96%.

These data come from patent publication US8367366B2, “Methods and kits for quantitative methyltransferase and demethylase measurements” (The Board of Trustees of the University of Arkansas, priority 2010, dated 2013).
